In patent US8759324B2 (priority 2006, dated 2014):
Read-outs that look alike come from different tables or passages of the source.

Key:
[1] = in vivo, iv; cited from earlier work
[2] = when carboxylates are protonated; cited from earlier work
[3] = Stability of metalloporphyrins to oxidative degradation (bleaching), spectrophotometric; conditions: for remaining fraction of metalloporphyrin: after 6 hours, in the presence of cyclophosphamide, pH 7.4, 10 μM porphyrin; for remaining fraction of metalloporphyrin / stability to oxidative degradation / bleaching (in words): aerobic; for stability to oxidative degradation / bleaching (in words): pH 7.4, ascorbic acid
[4] = Electrochemistry: metal-centered redox potential (voltammetry); format: physicochemical; conditions: for E1/2 (H2O)M^IIIP/(H2O)M^IIP: 0.1M NaCl and 0.01 M HCl, errors ±3 mV
Procedure: The electrochemistry was done as previously described on CH Instruments 600 Voltammetric Analyzer. The metal-centered redox potentials of aquametalloporhyrins were measured in 0.1 M NaCl and 0.01 M HCl. […] Thus, their voltammograms were obtained in 0.1 M NaCl, 0.1 M 1-methylimidazole, 0.05 M phosphate buffer, pH 7.8. Scan rates were 0.1 V/s. The potentials were standardized against MnTE-2-PyP^5+ and are given in Table 1, in mV versus normal hydrogen electrode, NHE [42].

[5] = cited from earlier work
[6] = Precipitation of anionic porphyrins at acidic pH; format: physicochemical; conditions: pH 5.5, ~50% of carboxylate groups protonated
[7] = cited from earlier work; remark: listed apart in the source
[8] = pH 7.4; for remaining fraction of metalloporphyrin: buffer, 6 h
[9] = 0.1 M NaCl, 0.1 M 1-methylimidazole, 0.05 M phosphate buffer, pH 7.8, scan rate 0.1 V/s
[10] = footnote b: ref 42, pH 7.8, 0.05 M phosphate buffer, 0.1M NaCl, 0.5 mM porphyrin
[11] = footnote a: estimated from existing potentials of difluoro- and dichloro analogues [42] and those obtained herein

## O=P1(N(CCCl)CCCl)NCCCO1 (stereo not drawn) [CP, cyclophosphamide]
[1]
  CP hydroxylated to 4-OHCP in plasma: around 2.4%
  peak CP levels in plasma: 27.58 μg/mL μM

## C=CC1=C(C)c2cc3[n-]c(cc4[n-]c(cc5nc(cc1n2)C(C)=C5C=C)c(C)c4CCC(=O)O)c(CCC(=O)O)c3C.[Cl-].[Fe+3] [FePP-IX^−, Fe(III) protoporphyrin IX]
[2]
  precipitation under acidic conditions: precipitate under acidic conditions
[3]; 2 mM ascorbic acid
  remaining fraction of metalloporphyrin: 71%
[3]
  stability to oxidative degradation / bleaching (in words): very resistant to bleaching
[4]; [9]
  E1/2 (1-MeIm)2M^IIIP/(1-MeIm)2M^IIP: 112 mV vs NHE
[5]
  pKa of carboxylate groups: ~5
[6]
  precipitation at pH 5.5: precipitate out of the solutions

## C[n+]1ccccc1-c1c2nc(c(-c3cccc[n+]3C)c3ccc([n-]3)c(-c3cccc[n+]3C)c3nc(c(-c4cccc[n+]4C)c4ccc1[n-]4)C=C3)C=C2.[Fe+3] [FeTM-2-PyP^5+, Fe(III) tetrakis(N-methylpyridinium-2-yl)porphyrin]
[3]; 9 μM porphyrin, 2 mM ascorbic acid, +/−50 μM H2O2, +/−50 mM mannitol, PBS pH 7.4, 25° C., data not shown
  change of absorbance at 417.5 nm (porphyrin degradation): decreased slowly
[3]; 2 mM ascorbic acid
  remaining fraction of metalloporphyrin: 41%
[7]; [10]
  E1/2 (1-MeIm)2M^IIIP/(1-MeIm)2M^IIP: +432^b mV vs NHE
  E1/2 (H2O)M^IIIP/(H2O)M^IIP: +355^b mV vs NHE
  E1/2 (OH)M^IIIP/(H2O)M^IIP: +212^b mV vs NHE

## C[n+]1ccccc1-c1c2nc(c(-c3cccc[n+]3C)c3ccc([n-]3)c(-c3cccc[n+]3C)c3nc(c(-c4cccc[n+]4C)c4ccc1[n-]4)C=C3)C=C2.[Mn+3] [MnTM-2-PyP^5+, Mn(III) tetrakis(N-methylpyridinium-2-yl)porphyrin]
[3]; 2 mM ascorbic acid
  remaining fraction of metalloporphyrin: 91%
[7]; [10]
  E1/2 (OH)M^IIIP/(H2O)M^IIP: +128^b mV vs NHE

## C[n+]1cccc(-c2c3nc(c(-c4ccc[n+](C)c4)c4ccc([n-]4)c(-c4ccc[n+](C)c4)c4nc(c(-c5ccc[n+](C)c5)c5ccc2[n-]5)C=C4)C=C3)c1.[Mn+3] [MnTM-3-PyP^5+, Mn(III) tetrakis(N-methylpyridinium-3-yl)porphyrin]
[3]; 2 mM ascorbic acid
  remaining fraction of metalloporphyrin: 94%
[7]; footnote c: ref 62, pH 11 where only 33% of (OH)MnTM-3-PyP^4+ exists
  E1/2 (OH)M^IIIP/(H2O)M^IIP: +42^c mV vs NHE

## Fe(III) meso tetrakis(2,6-dichloro-3-sulfonatophenyl)porphyrin [FeT(2,6-Cl2-3-SO3P)P^3−]
[4]; scan rate 0.1 V/s
  E1/2 (H2O)M^IIIP/(H2O)M^IIP: +144^ mV vs NHE
[7]; [10]
  E1/2 (1-MeIm)2M^IIIP/(1-MeIm)2M^IIP: +134^b mV vs NHE
  E1/2 (OH)M^IIIP/(H2O)M^IIP: +94^b mV vs NHE
[8]
  remaining fraction of metalloporphyrin: 23%
  stability to oxidative degradation / bleaching (in words): least stable

## Fe(III) meso tetrakis(2,6-difluoro-3-sulfonatophenyl)porphyrin [FeT(2,6-F2-3-SO3P)P^3−]
pH 5.5
  4-OHCP produced: 46.11 µM
  cyclophosphamide hydroxylated relative to 10 μM porphyrin: ~5 fold
pH 7.4
  4-OHCP formed: 15.62 µM
[4]; scan rate 0.1 V/s
  E1/2 (H2O)M^IIIP/(H2O)M^IIP: +124^ mV vs NHE
[4]; [11]
  E1/2 (1-MeIm)2M^IIIP/(1-MeIm)2M^IIP: +114^a mV vs NHE
  E1/2 (OH)M^IIIP/(H2O)M^IIP: +74^a mV vs NHE
[8]
  remaining fraction of metalloporphyrin: 19%
  stability to oxidative degradation / bleaching (in words): least stable

## Fe(III) meso tetrakis(4-carboxylatophenyl)porphyrin [FeTBAP^3−]
[2]
  precipitation under acidic conditions: precipitate under acidic conditions
[3]; 2 mM ascorbic acid
  remaining fraction of metalloporphyrin: 24%
[3]
  stability to oxidative degradation / bleaching (in words): more prone to destruction
[4]; [9]
  E1/2 (1-MeIm)2M^IIIP/(1-MeIm)2M^IIP: +22 ^ mV vs NHE
[5]
  pKa of carboxylate groups: ~5
[6]
  precipitation at pH 5.5: precipitate out of the solutions
